Experimental data as given in the NIST ThermoML archive (doi:10.1016/j.tca.2018.05.017).
Numbers after ± are expanded uncertainties.

Conditions: Crystal; DTA

- Normal melting temperature: 72.20 ± 5 °C
Compound: CCCCCCCC[NH+](CCCCCCCC)CCCCCCCC.[Cl-] [trioctylammonium chloride]
